Measurements taken from the supplement of paper PMC10307832.

Assays:
Experiment in all cases: relative viability (nuclei count vs DMSO), 5 days (fraction); higher = more cells survive
[1] = compound: CN(C)C[C@@H]1CCn2cc(c3ccccc32)C2=C(C(=O)NC2=O)c2cn(c3ccccc23)CCO1 [Ruboxistaurin] + C[C@@H](Oc1cc(-c2cnn(C3CCNCC3)c2)cnc1N)c1c(Cl)ccc(F)c1Cl [Crizotinib] (partner 1 µM)
In short: (§1)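 Lung cancer cell lines in 1536-well plates were dosed by pin tool the day after seeding, either with one drug alone or with a fixed anchor-drug dose plus five library-drug doses (not always all listed) in √10 steps. After 5 days, cells were fixed and their nuclei stained in one step (final 0.05% Triton X-100, 1% formaldehyde, 1 ug/ml Hoechst), then counted on 4× images. Relative viability is the nuclei count in treated wells divided by that in vehicle wells. Values are medians of duplicate plates.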

[2] = compound: CN(C)C[C@@H]1CCn2cc(c3ccccc32)C2=C(C(=O)NC2=O)c2cn(c3ccccc23)CCO1 [Ruboxistaurin] + Cc1nc(NC(=O)N2CCC[C@H]2C(N)=O)sc1-c1ccnc(C(C)(C)C(F)(F)F)c1 [Alpelisib] (partner 2 µM)
In short: as §1

[3] = compound: CN(C)C[C@@H]1CCn2cc(c3ccccc32)C2=C(C(=O)NC2=O)c2cn(c3ccccc23)CCO1 [Ruboxistaurin] + N=C(N)NC(=N)NCCc1ccccc1 [Phenformin] (partner 250 µM)
In short: as §1

[4] = compound: CN(C)C[C@@H]1CCn2cc(c3ccccc32)C2=C(C(=O)NC2=O)c2cn(c3ccccc23)CCO1 [Ruboxistaurin] + COc1cc2c(Oc3ccc(NC(=O)C4(C(=O)Nc5ccc(F)cc5)CC4)cc3F)ccnc2cc1OCCCN1CCOCC1 [Foretinib] (partner 0.25 µM)
In short: as §1

Ruboxistaurin + OSI-027 = compound: CN(C)C[C@@H]1CCn2cc(c3ccccc32)C2=C(C(=O)NC2=O)c2cn(c3ccccc23)CCO1 [Ruboxistaurin] + COc1cccc2cc(-c3nc([C@H]4CC[C@H](C(=O)O)CC4)n4ncnc(N)c34)[nH]c12 [OSI-027] (partner 0.5 µM)
In short: as §1

Row | Cell Line | relative viability ([1]; first compound 0.08 µM) | relative viability ([1]; first compound 0.8 µM) | relative viability ([1]; first compound 2.53 µM) | relative viability ([1]; first compound 8 µM) | relative viability ([2]; first compound 0.08 µM) | relative viability ([2]; first compound 0.8 µM) | relative viability ([2]; first compound 2.53 µM) | relative viability ([2]; first compound 8 µM) | relative viability ([3]; first compound 0.08 µM) | relative viability ([3]; first compound 0.8 µM) | relative viability ([3]; first compound 2.53 µM) | relative viability ([3]; first compound 8 µM) | relative viability ([4]; first compound 0.08 µM) | relative viability ([4]; first compound 0.8 µM) | relative viability ([4]; first compound 2.53 µM) | relative viability ([4]; first compound 8 µM) | relative viability (Ruboxistaurin + OSI-027; first compound 0.08 µM) | relative viability (Ruboxistaurin + OSI-027; first compound 0.8 µM) | relative viability (Ruboxistaurin + OSI-027; first compound 2.53 µM) | relative viability (Ruboxistaurin + OSI-027; first compound 8 µM)
1 | NCI-H1666 | 0.941 | 0.88 | 1.09 | 0.733 | 1.12 | 0.809 | 0.789 | 0.585 | 0.598 | 0.533 | 0.583 | 0.584 | 0.986 | 0.919 | 0.894 | 0.871 | 0.885 | 0.785 | 0.929 | 0.759
2 | NCI-H1734 | 0.719 | 0.514 | 0.605 | 0.66 | 0.768 | 0.641 | 0.663 | 0.57 | 0.495 | 0.342 | 0.406 | 0.323 | 0.852 | 0.783 | 0.922 | 0.683 | 0.628 | 0.411 | 0.56 | 0.385
3 | NCI-H1755 | 0.932 | 0.771 | 0.868 | 0.87 | 0.962 | 0.839 | 0.897 | 0.834 | 0.678 | 0.584 | 0.586 | 0.635 | 0.907 | 0.903 | 0.908 | 0.888 | 0.714 | 0.621 | 0.614 | 0.549
4 | NCI-H1915 | 0.892 | 0.829 | 0.855 | 0.901 | 1.07 | 1.02 | 1.03 | 1.09 | 0.35 | 0.349 | 0.363 | 0.376 | 1.05 | 1.03 | 1.02 | 0.899 | 0.645 | 0.489 | 0.505 | 0.363
5 | NCI-H1944 | 1.15 | 1.01 | 1.06 | 1.03 | 0.866 | 0.722 | 0.716 | 0.738 | 0.213 | 0.183 | 0.179 | 0.186 | 0.933 | 0.844 | 0.856 | 0.719 | 0.411 | 0.334 | 0.404 | 0.271
6 | NCI-H1975 | 0.954 | 0.846 | 0.954 | 0.862 | 0.678 | 0.565 | 0.561 | 0.447 | 0.431 | 0.392 | 0.414 | 0.418 | 0.979 | 1.03 | 1.05 | 0.856 | 0.751 | 0.578 | 0.645 | 0.502
7 | NCI-H1993 | 0.88 | 0.726 | 0.944 | 0.708 | 0.615 | 0.664 | 0.664 | 0.628 | 0.529 | 0.518 | 0.525 | 0.568 | 0.941 | 0.623 | 0.905 | 0.691 | 0.6 | 0.479 | 0.543 | 0.531
8 | NCI-H2009 | 1 | 0.959 | 1.06 | 1.08 | 1.21 | 1.14 | 1.18 | 1.14 | 0.579 | 0.442 | 0.536 | 0.502 | 1.29 | 1.22 | 1.28 | 1.24 | 0.735 | 0.536 | 0.608 | 0.548
9 | NCI-H2023 | 0.691 | 0.588 | 0.565 | 0.503 | 0.633 | 0.565 | 0.605 | 0.415 | 0.448 | 0.388 | 0.445 | 0.383 | 1.22 | – | 0.787 | 0.693 | 0.438 | 0.309 | 0.271 | 0.158
10 | NCI-H2085 | 1 | 0.684 | 0.874 | 0.917 | 0.996 | 0.899 | 0.977 | 0.997 | 0.789 | 0.655 | 0.745 | 0.674 | 0.878 | 0.757 | 1.28 | 1.12 | 0.731 | 0.521 | 0.791 | 0.446
11 | NCI-H2087 | 0.898 | 0.735 | 1.08 | 1.15 | 1.07 | 0.971 | 1.24 | 0.952 | 0.494 | 0.409 | 0.481 | 0.472 | 1.2 | 0.934 | 1.07 | 0.876 | 0.627 | 0.492 | 0.449 | 0.309
12 | NCI-H2126 | 1.03 | 0.92 | 1.07 | 1 | 0.729 | 0.713 | 0.76 | 0.697 | 0.573 | 0.52 | 0.541 | 0.52 | 1.14 | 1.13 | 1.2 | 1.12 | 0.811 | 0.638 | 0.776 | 0.639
13 | NCI-H2170 | 1.15 | 1.13 | 1.2 | 1.21 | 0.82 | 0.716 | 0.823 | 0.694 | 0.443 | 0.429 | 0.458 | 0.474 | 1.02 | 1.02 | 1.05 | 1.05 | 0.736 | 0.599 | 0.67 | 0.536
14 | NCI-H2228 | 0.453 | 0.427 | 0.316 | 0.3 | 0.85 | 0.675 | 0.837 | 0.478 | 0.345 | 0.256 | 0.419 | 0.269 | 0.906 | 0.772 | 0.86 | 0.729 | 0.6 | 0.439 | 0.549 | 0.281
15 | NCI-H2347 | 0.725 | 0.581 | 0.568 | 0.651 | 1.09 | 0.951 | 0.967 | 0.863 | 0.557 | 0.382 | 0.488 | 0.367 | 0.951 | 0.798 | 1.05 | 0.763 | 0.483 | 0.429 | 0.354 | 0.356
16 | NCI-H2405 | 0.901 | 0.823 | 0.838 | 0.874 | 0.936 | 0.681 | 0.775 | 0.835 | 0.427 | 0.391 | 0.414 | 0.38 | 1.07 | 0.961 | 0.998 | 1.01 | 0.652 | 0.592 | 0.633 | 0.56
